Measurements: PubChem BioAssay AID328 (DTP/NCI, 2004)
Where “and” joins values, the source holds several entries; their conditions need not be identical. Identical values can stand only once. Toxic doses and inconclusive results are not listed.

Tested on: BDF1 mice, P388 leukemia ip, median survival T/C
Experiment: NCI In Vivo Anticancer Drug Screen. Data for tumor model P388 Leukemia (intraperitoneal) in B6D2F1 (BDF1) mice
Settings: endpoint: median survival time, higher = longer survival
Procedure, shortened: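 Compound-treated tumour-bearing mice were compared with vehicle-treated controls. Survival was recorded, and the value is the treated-group measurement divided by the control-group measurement (T/C).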

[1] = dose: 50.0 mg/kg/injection, schedule: Q01DX009 (ip), vehicle: saline with Tween-80
[2] = dose: 100.0 mg/kg/injection, schedule: Q01DX009 (ip), vehicle: saline with Tween-80
[3] = dose: 200.0 mg/kg/injection, schedule: Q01DX009 (ip), vehicle: saline with Tween-80
[4] = dose: 400.0 mg/kg/injection, schedule: Q01DX009 (ip), vehicle: saline with Tween-80
[5] = dose: 200.0 mg/kg/injection, schedule: Q01DX001 (ip), vehicle: saline
[6] = dose: 100.0 mg/kg/injection, schedule: Q01DX009 (ip), vehicle: Klucel (hydroxypropylcellulose) (HPC)
[7] = dose: 100.0 mg/kg/injection, schedule: Q04DX003 (ip), vehicle: Klucel (hydroxypropylcellulose) (HPC)
[8] = dose: 200.0 mg/kg/injection, schedule: Q01DX009 (ip), vehicle: Klucel (hydroxypropylcellulose) (HPC)
[9] = dose: 200.0 mg/kg/injection, schedule: Q04DX003 (ip), vehicle: Klucel (hydroxypropylcellulose) (HPC)
[10] = dose: 400.0 mg/kg/injection, schedule: Q01DX009 (ip), vehicle: Klucel (hydroxypropylcellulose) (HPC)
[11] = dose: 400.0 mg/kg/injection, schedule: Q04DX003 (ip), vehicle: Klucel (hydroxypropylcellulose) (HPC)

N=[N+]=CC(=O)CCC(NC(=O)C(CCC(=O)C=[N+]=N)NC(=O)CCC(N)C(=O)O)C(=O)O (stereo not drawn)
T/C (dose: 0.1 mg/kg/injection, schedule: Q01DX009 (ip), vehicle: Klucel (hydroxypropylcellulose) (HPC)): 88 % of control
T/C (dose: 0.2 mg/kg/injection, schedule: Q01DX009 (ip), vehicle: Klucel (hydroxypropylcellulose) (HPC)): 92 % of control
T/C (dose: 0.2 mg/kg/injection, schedule: Q01DX009 (ip), vehicle: water): 163 % of control
T/C (dose: 0.2 mg/kg/injection, schedule: Q01DX010 (ip), vehicle: other): 170 % of control
T/C (dose: 0.3 mg/kg/injection, schedule: Q01DX009 (ip), vehicle: water): 109 % of control
T/C (dose: 0.4 mg/kg/injection, schedule: Q01DX009 (ip), vehicle: Klucel (hydroxypropylcellulose) (HPC)): 94 % of control
T/C (dose: 0.4 mg/kg/injection, schedule: Q01DX009 (ip), vehicle: water): 150 % of control
T/C (dose: 0.4 mg/kg/injection, schedule: Q01DX010 (ip), vehicle: other): 210 % of control
T/C (dose: 0.4 mg/kg/injection, schedule: Q01DX010 (ip), vehicle: water): 172 % of control
T/C (dose: 0.5 mg/kg/injection, schedule: Q01DX009 (ip), vehicle: water): 86 % of control
T/C (dose: 0.6 mg/kg/injection, schedule: Q01DX009 (ip), vehicle: water): 90 % of control
T/C (dose: 0.6 mg/kg/injection, schedule: Q01DX010 (ip), vehicle: other): 120 % of control
T/C (dose: 0.6 mg/kg/injection, schedule: Q01DX010 (ip), vehicle: water): 109 % of control and 110 % of control
T/C (dose: 0.8 mg/kg/injection, schedule: Q01DX009 (ip), vehicle: Klucel (hydroxypropylcellulose) (HPC)): 102 % of control
T/C (dose: 0.8 mg/kg/injection, schedule: Q01DX010 (ip), vehicle: other): 110 % of control
T/C (dose: 0.8 mg/kg/injection, schedule: Q01DX010 (ip), vehicle: water): 100 % of control
T/C (dose: 1.0 mg/kg/injection, schedule: Q01DX010 (ip), vehicle: water): 90 % of control
T/C (dose: 1.6 mg/kg/injection, schedule: Q01DX009 (ip), vehicle: Klucel (hydroxypropylcellulose) (HPC)): 97 % of control
T/C (dose: 2.5 mg/kg/injection, schedule: Q02DX005 (oral), vehicle: other): 163 % of control
T/C (dose: 5.0 mg/kg/injection, schedule: Q02DX005 (oral), vehicle: other): 159 % of control
T/C (dose: 7.5 mg/kg/injection, schedule: Q04DX003 (ip), vehicle: water): 154 % of control
T/C (dose: 10.0 mg/kg/injection, schedule: Q02DX005 (oral), vehicle: other): 177 % of control
T/C (dose: 12.5 mg/kg/injection, schedule: Q04DX003 (oral), vehicle: water): 172 % of control
T/C (dose: 15.0 mg/kg/injection, schedule: Q02DX005 (oral), vehicle: other): 209 % of control
T/C (dose: 15.0 mg/kg/injection, schedule: Q04DX003 (ip), vehicle: water): 200 % of control
T/C (dose: 20.0 mg/kg/injection, schedule: Q02DX005 (oral), vehicle: other): 195 % of control
T/C (dose: 25.0 mg/kg/injection, schedule: Q04DX003 (oral), vehicle: water): 200 % of control
T/C (dose: 30.0 mg/kg/injection, schedule: Q04DX003 (ip), vehicle: water): 218 % of control
T/C (dose: 50.0 mg/kg/injection, schedule: Q04DX003 (oral), vehicle: water): 222 % of control
T/C (dose: 100.0 mg/kg/injection, schedule: Q04DX003 (oral), vehicle: water): 104 % of control

Cc1ccc(NC(=S)NCCc2ccccn2)cc1C
T/C [1]: 101 % of control and 124 % of control
T/C [2]: 100 % of control and 102 % of control
T/C [3]: 104 % of control and 106 % of control
T/C [4]: 100 % of control

CC(N)(/C=C/c1ccccc1)C(=O)O (stereo not drawn)
T/C (dose: 50.0 mg/kg/injection, schedule: Q01DX005 (ip), vehicle: saline with Tween-80): 101 % of control
T/C (dose: 100.0 mg/kg/injection, schedule: Q01DX005 (ip), vehicle: saline with Tween-80): 97 % of control
T/C (dose: 200.0 mg/kg/injection, schedule: Q01DX005 (ip), vehicle: saline with Tween-80): 113 % of control

CCOC(=O)CC(C)C(Br)(C(=O)OCC)C(=O)OCC (stereo not drawn)
T/C (dose: 25.0 mg/kg/injection, schedule: Q01DX009 (ip), vehicle: water): 110 % of control
T/C (dose: 25.0 mg/kg/injection, schedule: Q04DX003 (ip), vehicle: water): 108 % of control
T/C (dose: 50.0 mg/kg/injection, schedule: Q01DX009 (ip), vehicle: water): 121 % of control
T/C (dose: 50.0 mg/kg/injection, schedule: Q04DX003 (ip), vehicle: water): 110 % of control
T/C (dose: 100.0 mg/kg/injection, schedule: Q01DX009 (ip), vehicle: water): 114 % of control
T/C (dose: 100.0 mg/kg/injection, schedule: Q04DX003 (ip), vehicle: water): 117 % of control
T/C (dose: 200.0 mg/kg/injection, schedule: Q04DX003 (ip), vehicle: water): 106 % of control

COC(=O)CCCNC1CCCCC1
T/C (dose: 50.0 mg/kg/injection, schedule: Q01DX001 (ip), vehicle: saline): 107 % of control
T/C (dose: 100.0 mg/kg/injection, schedule: Q01DX001 (ip), vehicle: saline): 114 % of control
T/C [5]: 102 % of control

CC(=O)CC(C)=O.CC(=O)CC(C)=O.O.O.[Co]
T/C (dose: 22.0 mg/kg/injection, schedule: Q04DX003 (ip), vehicle: saline with Tween-80): 105 % of control
T/C (dose: 33.0 mg/kg/injection, schedule: Q04DX003 (ip), vehicle: saline with Tween-80): 113 % of control
T/C (dose: 75.0 mg/kg/injection, schedule: Q04DX003 (ip), vehicle: saline with Tween-80): 102 % of control

CCN(CC)C(C)CN1c2ccccc2Sc2ccccc21 (stereo not drawn)
T/C (dose: 25.0 mg/kg/injection, schedule: Q01DX009 (ip), vehicle: saline): 100 % of control
T/C (dose: 50.0 mg/kg/injection, schedule: Q01DX009 (ip), vehicle: saline): 112 % of control
T/C (dose: 100.0 mg/kg/injection, schedule: Q01DX009 (ip), vehicle: saline): 116 % of control

CCCCCCCCCCCCc1c(C(OC)OC)[nH]c(=S)[nH]c1=O
T/C [6]: 107 % of control
T/C [7]: 104 % of control
T/C [8]: 88 % of control
T/C [9]: 100 % of control
T/C [10]: 96 % of control
T/C [11]: 100 % of control

O=c1cc(Cl)c2ccccc2[nH]1
T/C [2]: 100 % of control
T/C (dose: 100.0 mg/kg/injection, schedule: Q04DX003 (ip), vehicle: saline with Tween-80): 109 % of control
T/C [3]: 91 % of control
T/C (dose: 200.0 mg/kg/injection, schedule: Q04DX003 (ip), vehicle: saline with Tween-80): 100 % of control
T/C [4]: 100 % of control
T/C (dose: 400.0 mg/kg/injection, schedule: Q04DX003 (ip), vehicle: saline with Tween-80): 100 % of control

O=C(Nc1ccc(Nc2ccncc2)cc1)c1ccc([N+](=O)[O-])cc1
T/C [7]: 90 % of control
T/C [9]: 90 % of control
T/C [11]: 118 % of control

Cc1ccc(S(=O)(=O)NC(=O)NNC(=O)C(F)(F)F)cc1
T/C [1]: 114 % of control
T/C [2]: 96 % of control
T/C [3]: 109 % of control

C=C(C)[C@@H]1CC[C@]2(C)CC[C@]3(C)[C@H](CC[C@@H]4[C@@]5(C)CC[C@H](O)C(C)(C)[C@@H]5CC[C@]43C)[C@@H]12
T/C (dose: 50.0 mg/kg/injection, schedule: Q01DX009 (ip), vehicle: Klucel (hydroxypropylcellulose) (HPC)): 93 % of control
T/C [6]: 101 % of control
T/C [8]: 105 % of control
T/C [10]: 97 % of control

COc1ccc(C2NC(=S)NC3=C2CCCC3)cc1 (stereo not drawn)
T/C [1]: 96 % of control
T/C [2]: 107 % of control
T/C [3]: 98 % of control

CNC(=S)NN
T/C (dose: 100.0 mg/kg/injection, schedule: Q04DX003 (ip), vehicle: saline): 100 % of control
T/C [5]: 100 % of control
T/C (dose: 200.0 mg/kg/injection, schedule: Q04DX003 (ip), vehicle: saline): 90 % of control
T/C (dose: 400.0 mg/kg/injection, schedule: Q04DX003 (ip), vehicle: saline): 100 % of control

O=C(CCC(=O)c1cccc([N+](=O)[O-])c1)NNc1ccc([N+](=O)[O-])cc1[N+](=O)[O-]
T/C [2]: 104 % of control
T/C [3]: 90 % of control
T/C [4]: 95 % of control

COC(=O)CCCCCCCCC(C)c1ccccc1 (stereo not drawn)
T/C (dose: 264.0 mg/kg/injection, schedule: Q01DX009 (ip), vehicle: saline): 110 % of control
T/C (dose: 400.0 mg/kg/injection, schedule: Q01DX009 (ip), vehicle: saline): 110 % of control

Cc1c2c(nn1-c1ccccn1)C(=O)C=C(Nc1ccccc1)C2=O
T/C (dose: 8.8 mg/kg/injection, schedule: Q01DX009 (ip), vehicle: carboxymethylcellulose (CMC)): 91 % of control
